Data from BigSolDB 2.1.

CC(C)(C)c1cc(O)c(C(C)(C)C)cc1O
Settings	solubility (mole fraction)
in acetone, 283.35 K	0.0332
in acetone, 285.65 K	0.0365
in acetone, 288.25 K	0.0413
in acetone, 290.55 K	0.0456
in acetone, 293.15 K	0.0519
in acetone, 295.35 K	0.057
in acetone, 298.05 K	0.0636
in acetone, 300.35 K	0.0691
in acetone, 303.15 K	0.0775
in acetone, 305.45 K	0.0836
in acetone, 308.05 K	0.0929
in acetone, 310.25 K	0.1
in acetone, 313.05 K	0.12
in acetone, 316.15 K	0.123
in acetone, 319.15 K	0.136
in acetone, 321.15 K	0.148
in acetone, 323.15 K	0.161
in ethyl acetate, 278.95 K	0.144
in ethyl acetate, 281.55 K	0.145
in ethyl acetate, 284.45 K	0.146
in ethyl acetate, 287.35 K	0.148
in ethyl acetate, 290.45 K	0.148
in ethyl acetate, 293.15 K	0.15
in ethyl acetate, 296.25 K	0.151
in ethyl acetate, 298.85 K	0.153
in ethyl acetate, 301.85 K	0.155
in ethyl acetate, 304.75 K	0.157
in ethyl acetate, 307.45 K	0.158
in ethyl acetate, 310.45 K	0.161
in ethyl acetate, 312.35 K	0.163
in ethyl acetate, 316.15 K	0.166
in ethyl acetate, 319.15 K	0.169
in ethyl acetate, 322.15 K	0.17
in ethyl acetate, 325.15 K	0.173
in ethyl acetate, 328.15 K	0.177
in ethyl acetate, 331.15 K	0.18
in ethyl acetate, 335.15 K	0.183
in ethyl acetate, 337.15 K	0.186
in ethyl acetate, 340.15 K	0.188
in ethyl acetate, 343.15 K	0.194
in ethyl acetate, 346.15 K	0.195
in methanol, 280.95 K	0.0647
in methanol, 283.55 K	0.065
in methanol, 285.95 K	0.0651
in methanol, 288.15 K	0.0653
in methanol, 290.65 K	0.0658
in methanol, 293.15 K	0.0667
in methanol, 295.55 K	0.0678
in methanol, 297.95 K	0.0688
in methanol, 300.65 K	0.0697
in methanol, 302.65 K	0.0707
in methanol, 305.15 K	0.0712
in methanol, 307.25 K	0.072
in methanol, 309.85 K	0.0727
in methanol, 312.05 K	0.0734
in methanol, 316.15 K	0.0766
in methanol, 319.15 K	0.078
in methanol, 322.15 K	0.08
in methanol, 325.15 K	0.0811
in methanol, 328.15 K	0.0833
in methanol, 331.15 K	0.0849
in methanol, 333.15 K	0.0863
